# Measurements reported in patent US20220192192A1, “LOW VOLATILITY HERBICIDAL COMPOSITIONS” (Monsanto Technology LLC, priority 2012, published 2022).
# Assay: Measurement of dicamba volatility (humidome): dicamba concentration in air by LC-MS
# Format: physicochemical
# Settings: di- and tri-carboxylic acids tested in dicamba compositions
# From the text: Humidomes obtained from Hummert International (Part Nos 14-3850-2 for humidomes and 11-3050-1 for 1020 flat tray) were modified by cutting a 2.2 cm diameter hole on one end approximately 5 cm from the top to allow for insertion of a glass air sampling tube (22 mm OD) containing a polyurethane foam (PUF) filter. The sampling tube was secured with a VITON o-ring on each side of the humidome wall. The air sampling tube external to the humidome was fitted with tubing that was connected to a vacuum manifold immediately prior to sampling. […] The flat tray bottom containing the dicamba formulation on soil was covered with the humidome lid and the lid was secured with clamps. The assembled humidomes were placed in a temperature and humidity controlled environment and connected to a vacuum manifold through the air sampling line. Air was drawn through the humidome and PUF at a rate of 2 liters per minute (LPM) for 24 hours at which point the air sampling was stopped. The humidomes were then removed from the controlled environment and the PUF filter was removed. The PUF filter was extracted with 20 mL of methanol and the solution was analyzed for dicamba concentration using LC-MS methods known in the art. […] Where glyphosate was added or was part of the formulation, glyphosate was present at a concentration of 2.4% a.e. or 2.0 lb/A a.e. Where 2,4-D was added or was part of the formulation, 2,4-D was present at 2.4% ae or 2.0 lb/A ae at 10 gallons per acre (GPA). The growth chambers were set at 35° C. and 40% relative humidity (RH). For each composition four separate humidome boxes were sprayed to have 4 replicate measurements for each formulation. Tables 3-1 to 3-12 below provide the mean concentration of dicamba in air for the tested formulations.
row,SMILES,effect of the acid on dicamba volatility
1,O=C(O)C(=O)O [oxalic acid],did not reduce dicamba volatility
2,O=C(O)CC(O)(CC(=O)O)C(=O)O [citric acid],did not reduce dicamba volatility
3,O=C(O)CCC(=O)O [succinic acid],did not reduce dicamba volatility
4,O=C(O)CC(O)C(=O)O (stereo not shown) [malic acid],did not reduce dicamba volatility
